Test [1] in a line: DPPH test (antioxidant power). Conditions: decrease of DPPH radical peak at 517 nm, spectrophotometry. The method, then: DPPH Test The DPPH test allows determining the antioxidant power by reacting the sample to be analyzed with a solution of DPPH [2,2-diphenyl-1-picrylhydrazyl, PM 394.33, […]] and analyzing the decrease in the peak at 517 of the DPPH^• radical at UV. Antioxidant compounds which are capable of transferring a hydrogen atom to the radical cause a loss of absorbance of the solution. The decrease of the DPPH^• radical peak at 517 nm is then analyzed by spectrophotometry after a predetermined incubation time. This decrease (discoloration) is proportional to the antioxidant load present in the sample. The results can also be expressed as IC50, i.e., the concentration of antioxidant compound which causes an initial 50% decrease in DPPH^•.
Background: DPPH is a stable violet radical that fades when it is reduced.

Test [2] can be described thus: ORAC test (Oxygen Radical Absorbance Capacity). As to conditions: fluorescence decay under peroxyl radical flow; Trolox as reference standard. The source says:
ORAC Test The ORAC method (Oxygen Radical Absorbance Capacity) is one of the most common methods for determining radical trapping capacity against peroxyl radicals. The principle of the test is based on the measurement of the decrease in the fluorescence intensity of a fluorescent target molecule (for example fluorescein), under a constant flow of peroxyl radicals, generated by the thermal decomposition of an azo compound. The results are expressed as equivalent Trolox® micromoles, using this compound as the reference standard.

Turning to `O=C1O[C@H]([C@@H](O)CO)C(O)=C1O` [Ascorbic acid], in test [1], the “DPPH IC50” value came out at 7.196 ± 0.852 µg/mL. Further, the ORAC in test [2] is reported as 2900 ± 310 μmol Trolox ® equivalent/g of sample.

(Values after patent US20240058413A1, “GRAPE SEED EXTRACT PREPARATION PROCESS AND EXTRACTS THUS OBTAINED” (Distillerie Bonollo Umberto - S.P.A. Con Sigla "U.B. S.P.A.", priority 2020, published 2024).)
